# Values quoted from earlier work in article PMC10994248 (The Oncologist, 2024).
# How the values were obtained:
# [1] = cited from earlier work
# [2] = reduction in neutrophils, monocytes, and lymphocytes ref in-house source data; cited from earlier work
substance,measurement,setting,value
tinengotinib,AUC (minimal efficacious),[1]; 5 mg/kg ref 3,707 ng·h/mL
same,TGI,[1]; 5 mg/kg ref 3,61.5%
same,Lowest active dose,[1]; preclinical PK/PD models ref 3,5 mg/kg
same,Preclinical toxicity finding,[2],myelosuppression
